According to patent publication US20100298141A1, “SUBSTITUTED PYRIDINE N-OXIDE HERBICIDES” (E. I. DU PONT DE NEMOURS AND COMPANY, priority 2007, published 2010):

How the values were obtained:
velvetleaf = test: Test A pre-/postemergence greenhouse test; format: in vivo, Abutilon theophrasti; conditions: for Plant response rating, Velvetleaf: 0 to 100 scale where 0 is no effect and 100 is complete control; for Velvetleaf plant response rating: 0 to 100 scale
Method in brief: (§1)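 Pots of loam–sand soil sown with the test species are sprayed preemergence on the soil surface; emerged seedlings (1–2 leaves, 2–10 cm) are sprayed postemergence at the same time. The vehicle is a non-phytotoxic solvent mixture with surfactant. Injury is scored visually after ~10 d in greenhouse.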

giant foxtail = test: Test A pre-/postemergence greenhouse test; format: in vivo, Setaria faberi; conditions: for Plant response rating, Foxtail, Giant: 0 to 100 scale where 0 is no effect and 100 is complete control; for Foxtail, Giant plant response rating: 0 to 100 scale
Method in brief: as §1

barnyardgrass [1] = test: Test A pre-/postemergence greenhouse test; format: in vivo, Echinochloa crus-galli; conditions: for Plant response rating, Barnyardgrass: 0 to 100 scale where 0 is no effect and 100 is complete control; for Barnyardgrass plant response rating: 0 to 100 scale
Method in brief: as §1

wheat = test: Test A pre-/postemergence greenhouse test; format: in vivo, Triticum aestivum; conditions: for Plant response rating, Wheat: 0 to 100 scale where 0 is no effect and 100 is complete control; for Wheat plant response rating: 0 to 100 scale
Method in brief: as §1

duck salad = test: Test C flooded paddy test; format: in vivo, Heteranthera limosa; conditions: Flood
Method in brief: (§2)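 Greenhouse pots flooded to 3 cm above soil at time of treatment received compound via the water, which stayed at that level.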

corn = test: Test A pre-/postemergence greenhouse test; format: in vivo, Zea mays; conditions: for Plant response rating, Corn: 0 to 100 scale where 0 is no effect and 100 is complete control; for Corn plant response rating: 0 to 100 scale
Method in brief: as §1

barnyardgrass [2] = test: Test C flooded paddy test; format: in vivo, Echinochloa crus-galli; conditions: Flood
Method in brief: as §2

crabgrass = test: Test A pre-/postemergence greenhouse test; format: in vivo, Digitaria sanguinalis; conditions: for Plant response rating, Crabgrass, Large: 0 to 100 scale where 0 is no effect and 100 is complete control; for Crabgrass, Large plant response rating: 0 to 100 scale
Method in brief: as §1

umbrella sedge = test: Test C flooded paddy test; format: in vivo, Cyperus difformis; conditions: Flood
Method in brief: as §2

rice = test: Test C flooded paddy test; format: in vivo, Oryza sativa; conditions: Flood
Method in brief: as §2

morningglory = test: Test A pre-/postemergence greenhouse test; format: in vivo, Ipomoea spp.; conditions: for Plant response rating, Morningglory: 0 to 100 scale where 0 is no effect and 100 is complete control; for Morningglory plant response rating: 0 to 100 scale
Method in brief: as §1

redroot pigweed = test: Test A pre-/postemergence greenhouse test; format: in vivo, Amaranthus retroflexus; conditions: for Plant response rating, Pigweed: 0 to 100 scale where 0 is no effect and 100 is complete control; for Pigweed plant response rating: 0 to 100 scale
Method in brief: as §1

[3] = Postemergence, 500 g ai/ha, 0 is no effect, 100 is complete control
[4] = Preemergence, 125 g ai/ha, 0 no effect, 100 complete control
[5] = Preemergence, 500 g ai/ha, 0 no effect, 100 complete control
[6] = 62 g ai/ha, scale 0 to 100 (0 no effect, 100 complete control)
[7] = 250 g ai/ha, scale 0 to 100, 0 no effect, 100 complete control, 13 to 15 days
[8] = 31 g ai/ha, scale 0 to 100 (0 no effect, 100 complete control)
[9] = 125 g ai/ha, scale 0 to 100, 0 no effect, 100 complete control, 13 to 15 days

CC(C)c1cc[n+]([O-])c([S+]([O-])Cc2c(C(F)(F)F)nn(C)c2OCC(F)(F)F)c1 (stereo not shown) [Compound 104]
Plant response rating, Velvetleaf (velvetleaf; Postemergence, 125 g ai/ha): 50 | Velvetleaf plant response rating (velvetleaf; [3]): 70 | Velvetleaf plant response rating (velvetleaf; [4]): 40 | Velvetleaf plant response rating (velvetleaf; [5]): 80 | Plant response rating, Foxtail, Giant (giant foxtail; Postemergence, 125 g ai/ha): 80 | Foxtail, Giant plant response rating (giant foxtail; [3]): 90 | Foxtail, Giant plant response rating (giant foxtail; [4]): 90 | Foxtail, Giant plant response rating (giant foxtail; [5]): 100 | Plant response rating, Barnyardgrass (barnyardgrass [1]; Postemergence, 125 g ai/ha): 50 | Barnyardgrass plant response rating (barnyardgrass [1]; [3]): 90 | Barnyardgrass plant response rating (barnyardgrass [1]; [4]): 40 | Barnyardgrass plant response rating (barnyardgrass [1]; [5]): 100 | Plant response rating, Wheat (wheat; Postemergence, 125 g ai/ha): 50 | Wheat plant response rating (wheat; [3]): 60 | Wheat plant response rating (wheat; [4]): 50 | Wheat plant response rating (wheat; [5]): 100 | Plant response rating, Ducksalad (duck salad; [6]): 30 | Plant response rating, Ducksalad (duck salad; [7]): 80 | Plant response rating, Corn (corn; Postemergence, 125 g ai/ha): 50 | Corn plant response rating (corn; [3]): 70 | Corn plant response rating (corn; [4]): 40 | Corn plant response rating (corn; [5]): 70 | Plant response rating, Barnyardgrass (barnyardgrass [2]; [6]): 0 | Plant response rating, Barnyardgrass (barnyardgrass [2]; [7]): 20 | Plant response rating, Crabgrass, Large (crabgrass; Postemergence, 125 g ai/ha): 40 | Crabgrass, Large plant response rating (crabgrass; [3]): 90 | Crabgrass, Large plant response rating (crabgrass; [4]): 80 | Crabgrass, Large plant response rating (crabgrass; [5]): 100 | Plant response rating, Sedge, Umbrella (umbrella sedge; [6]): 0 | Plant response rating, Sedge, Umbrella (umbrella sedge; [7]): 80 | Plant response rating, Rice (rice; [6]): 10 | Plant response rating, Rice (rice; [7]): 15 | Plant response rating, Morningglory (morningglory; Postemergence, 125 g ai/ha): 30 | Morningglory plant response rating (morningglory; [3]): 100 | Morningglory plant response rating (morningglory; [4]): 50 | Morningglory plant response rating (morningglory; [5]): 100 | Plant response rating, Pigweed (redroot pigweed; Postemergence, 125 g ai/ha): 50 | Pigweed plant response rating (redroot pigweed; [3]): 90 | Pigweed plant response rating (redroot pigweed; [4]): 90 | Pigweed plant response rating (redroot pigweed; [5]): 100

CCOc1ccc(S(=O)(=O)Cc2c(C(F)(F)F)nn(C)c2OC(F)F)[n+]([O-])c1 [Compound 105]
Plant response rating, Velvetleaf (velvetleaf; Postemergence, 125 g ai/ha): 0 | Velvetleaf plant response rating (velvetleaf; [3]): 0 | Velvetleaf plant response rating (velvetleaf; [4]): 0 | Velvetleaf plant response rating (velvetleaf; [5]): 0 | Plant response rating, Foxtail, Giant (giant foxtail; Postemergence, 125 g ai/ha): 10 | Foxtail, Giant plant response rating (giant foxtail; [3]): 60 | Foxtail, Giant plant response rating (giant foxtail; [4]): 40 | Foxtail, Giant plant response rating (giant foxtail; [5]): 50 | Plant response rating, Barnyardgrass (barnyardgrass [1]; Postemergence, 125 g ai/ha): 10 | Barnyardgrass plant response rating (barnyardgrass [1]; [3]): 60 | Barnyardgrass plant response rating (barnyardgrass [1]; [4]): 10 | Barnyardgrass plant response rating (barnyardgrass [1]; [5]): 30 | Plant response rating, Wheat (wheat; Postemergence, 125 g ai/ha): 0 | Wheat plant response rating (wheat; [3]): 0 | Wheat plant response rating (wheat; [4]): 0 | Wheat plant response rating (wheat; [5]): 0 | Plant response rating, Ducksalad (duck salad; [8]): 0 | Plant response rating, Ducksalad (duck salad; [6]): 0 | Plant response rating, Ducksalad (duck salad; [9]): 0 | Plant response rating, Ducksalad (duck salad; [7]): 0 | Plant response rating, Corn (corn; Postemergence, 125 g ai/ha): 0 | Corn plant response rating (corn; [3]): 0 | Corn plant response rating (corn; [4]): 0 | Corn plant response rating (corn; [5]): 0 | Plant response rating, Barnyardgrass (barnyardgrass [2]; [8]): 0 | Plant response rating, Barnyardgrass (barnyardgrass [2]; [6]): 0 | Plant response rating, Barnyardgrass (barnyardgrass [2]; [9]): 0 | Plant response rating, Barnyardgrass (barnyardgrass [2]; [7]): 0 | Plant response rating, Crabgrass, Large (crabgrass; Postemergence, 125 g ai/ha): 10 | Crabgrass, Large plant response rating (crabgrass; [3]): 70 | Crabgrass, Large plant response rating (crabgrass; [4]): 40 | Crabgrass, Large plant response rating (crabgrass; [5]): 70 | Plant response rating, Sedge, Umbrella (umbrella sedge; [8]): 0 | Plant response rating, Sedge, Umbrella (umbrella sedge; [6]): 0 | Plant response rating, Sedge, Umbrella (umbrella sedge; [9]): 0 | Plant response rating, Sedge, Umbrella (umbrella sedge; [7]): 0 | Plant response rating, Rice (rice; [8]): 0 | Plant response rating, Rice (rice; [6]): 0 | Plant response rating, Rice (rice; [9]): 0 | Plant response rating, Rice (rice; [7]): 0 | Plant response rating, Morningglory (morningglory; Postemergence, 125 g ai/ha): 0 | Morningglory plant response rating (morningglory; [3]): 30 | Morningglory plant response rating (morningglory; [4]): 10 | Morningglory plant response rating (morningglory; [5]): 40 | Plant response rating, Pigweed (redroot pigweed; Postemergence, 125 g ai/ha): 0 | Pigweed plant response rating (redroot pigweed; [3]): 0 | Pigweed plant response rating (redroot pigweed; [4]): 0 | Pigweed plant response rating (redroot pigweed; [5]): 0

Cn1nc(C(F)(F)F)c(CS(=O)(=O)c2ccc(F)c[n+]2[O-])c1OCC(F)(F)F [Compound 106]
Plant response rating, Velvetleaf (velvetleaf; Postemergence, 125 g ai/ha): 0 | Velvetleaf plant response rating (velvetleaf; [3]): 20 | Velvetleaf plant response rating (velvetleaf; [4]): 0 | Velvetleaf plant response rating (velvetleaf; [5]): 60 | Plant response rating, Foxtail, Giant (giant foxtail; Postemergence, 125 g ai/ha): 50 | Foxtail, Giant plant response rating (giant foxtail; [3]): 80 | Foxtail, Giant plant response rating (giant foxtail; [4]): 40 | Foxtail, Giant plant response rating (giant foxtail; [5]): 80 | Plant response rating, Barnyardgrass (barnyardgrass [1]; Postemergence, 125 g ai/ha): 40 | Barnyardgrass plant response rating (barnyardgrass [1]; [3]): 70 | Barnyardgrass plant response rating (barnyardgrass [1]; [4]): 40 | Barnyardgrass plant response rating (barnyardgrass [1]; [5]): 90 | Plant response rating, Wheat (wheat; Postemergence, 125 g ai/ha): 0 | Wheat plant response rating (wheat; [3]): 0 | Wheat plant response rating (wheat; [4]): 0 | Wheat plant response rating (wheat; [5]): 0 | Plant response rating, Ducksalad (duck salad; [8]): 0 | Plant response rating, Ducksalad (duck salad; [6]): 50 | Plant response rating, Ducksalad (duck salad; [9]): 60 | Plant response rating, Ducksalad (duck salad; [7]): 80 | Plant response rating, Corn (corn; Postemergence, 125 g ai/ha): 0 | Corn plant response rating (corn; [3]): 0 | Corn plant response rating (corn; [4]): 0 | Corn plant response rating (corn; [5]): 0 | Plant response rating, Barnyardgrass (barnyardgrass [2]; [8]): 0 | Plant response rating, Barnyardgrass (barnyardgrass [2]; [6]): 0 | Plant response rating, Barnyardgrass (barnyardgrass [2]; [9]): 15 | Plant response rating, Barnyardgrass (barnyardgrass [2]; [7]): 20 | Plant response rating, Crabgrass, Large (crabgrass; Postemergence, 125 g ai/ha): 30 | Crabgrass, Large plant response rating (crabgrass; [3]): 80 | Crabgrass, Large plant response rating (crabgrass; [4]): 60 | Crabgrass, Large plant response rating (crabgrass; [5]): 80 | Plant response rating, Sedge, Umbrella (umbrella sedge; [8]): 0 | Plant response rating, Sedge, Umbrella (umbrella sedge; [6]): 0 | Plant response rating, Sedge, Umbrella (umbrella sedge; [9]): 0 | Plant response rating, Sedge, Umbrella (umbrella sedge; [7]): 30 | Plant response rating, Rice (rice; [8]): 0 | Plant response rating, Rice (rice; [6]): 0 | Plant response rating, Rice (rice; [9]): 20 | Plant response rating, Rice (rice; [7]): 25 | Plant response rating, Morningglory (morningglory; Postemergence, 125 g ai/ha): 0 | Morningglory plant response rating (morningglory; [3]): 30 | Morningglory plant response rating (morningglory; [4]): 10 | Morningglory plant response rating (morningglory; [5]): 50 | Plant response rating, Pigweed (redroot pigweed; Postemergence, 125 g ai/ha): 0 | Pigweed plant response rating (redroot pigweed; [3]): 50 | Pigweed plant response rating (redroot pigweed; [4]): 70 | Pigweed plant response rating (redroot pigweed; [5]): 80
